Assay results reported in patent US20250222120A1, “SYNTHESIS OF NOVEL SMALL MOLECULE CARM1 DEGRADERS, COMPOUNDS FORMED THEREBY, AND PHARMACEUTICAL COMPOSITIONS CONTAINING THEM” (Wisconsin Alumni Research Foundation, priority 2024, published 2025).

Columns and labels:
BAF155 me2a = BAF155 me2a level in BT474 cells, western blot; assay type: cell-based; settings: 0.5 μM, after 48 h
From the text: FIGS. 7A-7F. […] Cell lysates were collected and CARM1, methyl-BAF155, total BAF155, methyl-PABP1, and total PABP1 levels were detected by Western blot. […] Cell lysates were collected and CARM1, methyl-BAF155, total BAF155 levels were detected by Western blot. […] Cell proliferation rate normalized to day 0 was plotted. […] Migrated cells were stained with 1% crystal violet and the percentage of migrated cells were plotted. Data mean±s.d. ***. P≤0.001.
Western Blot Assay. Cells were harvested and washed with Dulbecco's phosphate-buffered saline (PBS), then lysed with 1×RIPA lysis buffer (50 mM Tris pH 7.5, 150 mM NaCl, 1% NP-40, 0.5% sodium deoxycholate, and 0.1% sodium dodecyl sulfate) supplemented with 1 mM phenylmethylsulfonyl fluoride, 10 μg/mL aprotinin, 1 μM leupeptin, and 10 μg/mL pepstatin on ice for 20 min. The supernatant was collected after spinning down at 15000 RPM at 4 degrees Celsius for 10 min. The concentration of whole lysates was quantified using a Bradford assay. 50-75 μg of cell lysates was boiled in 4× Laemmli Loading Dye and boiled at 100 degrees Celsius for 10 min. 25 μg were run in 8% SDS-PAGE gels and transferred to nitrocellulose membranes. Blots were blocked in 5% skim milk in PBST [PBS and 0.1% Tween 20] for 45 min, then incubated with primary antibodies at 4 degrees Celsius overnight. […]

CARM1 = biological target: T1, CARM1 (Homo sapiens, UniProt Q86X55); test: CARM1 degradation by western blot in MCF7 cells; assay type: cell-based; parameters: Cell lysates were collected and the CARM1 levels were detected by western blots; endogenous in cells; host or cells: MCF7
T1 sequence (Q86X55 1-608): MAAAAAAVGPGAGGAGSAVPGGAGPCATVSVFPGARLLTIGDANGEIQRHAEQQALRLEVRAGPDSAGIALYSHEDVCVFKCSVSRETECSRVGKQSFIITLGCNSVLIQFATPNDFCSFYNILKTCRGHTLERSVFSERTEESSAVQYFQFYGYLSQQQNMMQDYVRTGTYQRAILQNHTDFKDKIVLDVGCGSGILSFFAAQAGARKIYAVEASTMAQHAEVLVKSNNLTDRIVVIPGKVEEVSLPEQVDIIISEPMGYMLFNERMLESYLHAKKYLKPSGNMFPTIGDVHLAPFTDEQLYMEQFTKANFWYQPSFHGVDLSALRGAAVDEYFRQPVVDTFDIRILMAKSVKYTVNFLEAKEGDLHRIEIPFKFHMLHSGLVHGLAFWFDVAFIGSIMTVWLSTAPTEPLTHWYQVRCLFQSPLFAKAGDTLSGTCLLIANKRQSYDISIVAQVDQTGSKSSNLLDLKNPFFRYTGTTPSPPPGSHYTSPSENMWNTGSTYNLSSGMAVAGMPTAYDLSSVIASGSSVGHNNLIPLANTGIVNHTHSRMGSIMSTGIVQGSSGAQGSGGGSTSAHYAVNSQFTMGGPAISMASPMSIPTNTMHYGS

CNCCN1CCC(c2cc(CN(C)C(=O)c3cccc(Oc4ccc(OCC(=O)N5CCC(CN6CCC(CN7CCN(CC(=O)N[C@H](C(=O)N8C[C@H](O)C[C@H]8C(=O)N[C@@H](C)c8ccc(-c9scnc9C)cc8)C(C)(C)C)CC7)CC6)CC5)cc4)c3)ccn2)CC1 [Compound 3b, (2S,4R)-1-((S)-3,3-dimethyl-2-(2-(4-((1-((1-(2-(4-(3-(methyl((2-(1-(2-(methylamino)ethyl)piperidin-4-yl)pyridin-4-yl)methyl)carbamoyl)phenoxy)phenoxy)acetyl)piperidin-4-yl)methyl)piperidin-4-yl)methyl)piperazin-1-yl)acetamido)butanoyl)-4-hydroxy-N—((S)-1-(4-(4-methylthiazol-5-yl)phenyl)ethyl)pyrrolidine-2-carboxamide]
BAF155 me2a level (BAF155 me2a): decrease of BAF155 me2a level was observed
Dmax (CARM1; MCF7, read-out: Dmax of CARM1 degradation, MCF7 cells, 24 h, western blot, three independent experiments): > 95%
Time after exposure at which CARM1 degradation was observed (CARM1; MCF7 cells, 0.5 μM, time course): 2 h
CARM1 degradation over time course (CARM1; MCF7 cells, 0.5 μM, up to 48 h): degradation sustained and further maximized over the course of 48 h
CARM1 degradation activity, rigid linker compared with 2e (CARM1; MCF7 cells, 0.1, 0.5, 1.0 and 10.0 μM, 24 hours, compared with 2e at 0.5 μM): significantly improved CARM1 degradation activity
